From ChEMBL document CHEMBL5579862, “Development of Novel Bacterial Topoisomerase Inhibitors Assisted by Computational Screening” (ACS Med Chem Lett, 2024)
In brackets after ≈: the same amount, converted by molar mass. Activity calls are given as the source filed them. No cut-off for these calls is given here.

How the values were obtained:
Staphylococcus aureus [1] = test: Antibacterial activity against Staphylococcus aureus ATCC 29213; type: functional
Acinetobacter baumannii = test: Antibacterial activity against Acinetobacter baumannii ATCC 19606; type: functional
Escherichia coli = test: Antibacterial activity against Escherichia coli ATCC 25922; type: functional
Salmonella typhimurium [2] = test: Antibacterial activity against Salmonella typhimurium ATCC 14028; type: functional, Salmonella enterica subsp. enterica serovar Typhimurium; conditions: Salmonella enterica
DNA gyrase [3] = molecular target: DNA gyrase (Staphylococcus aureus, UniProt P0A0K8+P20831); test: Inhibition of Staphylococcus aureus DNA gyrase using relaxed pBR322 DNA as substrate incubated for 30 mins by ethidium bromide staining based agarose gel electrophoresis method; type: protein-complex assay
[4] = molecular target: T1, Topoisomerase IV (Staphylococcus aureus) (UniProt P0C1U9+P0C1S7); test: Inhibition of Staphylococcus aureus DNA topoisomerase IV assessed as accumulation of double strand breaks incubated at 37 degreeC for 30 mins followed by incubation at 45 degreeC for 30 mins by ethidium bromide based agarose gel electrophoresis; type: protein-complex assay; conditions: time 60.0 min
[5] = molecular target: T1, Topoisomerase IV (Staphylococcus aureus); test: Inhibition of Staphylococcus aureus DNA topoisomerase IV assessed as accumulation of single strand breaks incubated at 37 degreeC for 30 mins followed by incubation at 45 degreeC for 30 mins by ethidium bromide based agarose gel electrophoresis; type: protein-complex assay; conditions: time 60.0 min
Topoisomerase IV = Topoisomerase IV (Staphylococcus aureus, UniProt P0C1S7+P0C1U9); test: Inhibition of Staphylococcus aureus topoisomerase-IV assessed as reduction in decatenation using kinetoplast DNA as substrate incubated for 20 mins by ethidium bromide staining based agarose gel electrophoresis method; type: protein-complex assay
Staphylococcus aureus [6] = test: Antibacterial activity against methicillin resistant Staphylococcus aureus USA300; type: functional
DNA gyrase [7] = molecular target: DNA gyrase (Escherichia coli, UniProt P0AES4+P0AES6); test: Inhibition of Escherichia coli DNA gyrase using relaxed pBR322 DNA as substrate incubated at 37 degreeC for 30 to 45 mins followed by incubation at 75 degreeC for 10 mins by ethidium bromide staining based agarose gel electrophoresis method; type: protein-complex assay
Staphylococcus aureus [8] = test: Antibacterial activity against Staphylococcus aureus D83N; type: functional
Salmonella typhimurium [9] = test: Antibacterial activity against efflux deficient Salmonella typhimurium 14028 deltatolC1::kan; type: functional, Salmonella enterica subsp. enterica serovar Typhimurium; conditions: Salmonella enterica
[10] = molecular target: DNA gyrase (Staphylococcus aureus) (UniProt P0A0K8+P20831); test: Inhibition of Staphylococcus aureus DNA gyrase assessed as accumulation of single strand breaks at 10 uM incubated at 37 degreeC for 30 mins followed by incubation at 45 degreeC for 30 mins by ethidium bromide based agarose gel electrophoresis; type: protein-complex assay; conditions: time 60.0 min

| Compound | MIC (Staphylococcus aureus [1]) [µg/mL] | MIC (Acinetobacter baumannii) [µg/mL] | MIC (Salmonella typhimurium [2]) [µg/mL] | MIC (Staphylococcus aureus [6]) [µg/mL] | MIC (Staphylococcus aureus [8]) [µg/mL] | MIC (Salmonella typhimurium [9]) [µg/mL] | other results |
| --- | --- | --- | --- | --- | --- | --- | --- |
| COc1ccc2ncc(F)c(CCN3CCC(C(=O)Cc4ccc5c(c4)NC(=O)CO5)CC3)c2n1 | ≤ 0.13 | 4 (≈ 8.36 µM) | 16 (≈ 33.4 µM) | – | – | – | MIC (Escherichia coli): 2 µg/mL (≈ 4.18 µM) |
| COc1ccc2ncc(F)c(CCN3CCC([C@H](O)[C@H](O)c4ccc(C)cc4)CC3)c2n1 | – | – | – | 0.13 (≈ 0.296 µM) | – | – | IC50 (DNA gyrase [3]): 0.065 µM; inhibition [4]: < 1%; inhibition [5]: Active; IC50 (Topoisomerase IV): 3.31 µM; IC50 (DNA gyrase [7]): 17.1 µM |
| COc1ccc2ncc(F)c(CCN3CCC(/C=C/c4ccc5c(c4)OCCO5)CC3)c2n1 | 0.25 (≈ 0.556 µM) | 8 (≈ 17.8 µM) | 64 (≈ 142 µM) | 0.5 (≈ 1.11 µM) | 2 (≈ 4.45 µM) | 0.125 (≈ 0.278 µM) | MIC (Escherichia coli): 8 µg/mL (≈ 17.8 µM) |
| COc1ccc2ncc(F)c(CCN3CCC([C@@H](O)[C@@H](O)c4ccc(C)cc4)CC3)c2n1 | 0.13 (≈ 0.296 µM) | – | – | 0.25 (≈ 0.569 µM) | – | – | – |
| COc1ccc2ncc(F)c(CCN3CCC(C(N)Cc4ccc(C)cc4)CC3)c2n1 (stereo not drawn) | – | – | – | – | 32 (≈ 75.7 µM) | – | IC50 (DNA gyrase [3]): 5.05 µM; inhibition [4]: < 1%; inhibition [5]: Active; inhibition [10]: Active; IC50 (Topoisomerase IV): 82.6 µM; IC50 (DNA gyrase [7]): > 400 µM |
| COc1ccc2ncc(F)c(CCN3CCC(C(O)Cc4ccc5c(c4)OCC(=O)N5)CC3)c2n1 (stereo not drawn) | – | – | – | – | – | 0.125 (≈ 0.26 µM) | – |
| COc1ccc2ncc(F)c(CCN3CCC([C@H](O)[C@@H](O)c4ccc5c(c4)NC(=O)CO5)CC3)c2n1 | – | – | – | – | – | 0.25 (≈ 0.503 µM) | – |
| COc1ccc2ncc(F)c(CCN3CCC([C@H](O)[C@@H](O)c4ccc(C)cc4)CC3)c2n1 | – | 32 (≈ 72.8 µM) | – | 2 (≈ 4.55 µM) | – | – | – |
| O=c1ccc2ncc(=O)n3c2n1C[C@H]3CN1CCC(NCc2cc3c(cn2)OCCC3)CC1 [GEPOTIDACIN] | – | 8 (≈ 17.8 µM) | 2 (≈ 4.46 µM) | – | 8 (≈ 17.8 µM) | 0.125 (≈ 0.279 µM) | MIC (Escherichia coli): 1 µg/mL (≈ 2.23 µM) |
| COc1ccc2ncc(F)c(CCN3CCC(/C=C/c4ccc(C)cc4)CC3)c2n1 | 0.25 (≈ 0.616 µM) | – | ≥ 64 | – | ≥ 32 | 0.5 (≈ 1.23 µM) | – |
| COc1ccc2ncc(F)c(CCN3CCC(/C=C\c4ccc(C)cc4)CC3)c2n1 | 4 (≈ 9.86 µM) | – | – | 4 (≈ 9.86 µM) | 32 (≈ 78.9 µM) | 8 (≈ 19.7 µM) | – |
| COc1ccc2ncc(F)c(CCN3CCC([C@H](O)[C@H](O)c4ccc5c(c4)OCCO5)CC3)c2n1 | ≤ 0.13 | – | – | – | – | – | – |
| COc1ccc2ncc(F)c(CCN3CCC(C(O)Cc4ccc5c(c4)OCCO5)CC3)c2n1 (stereo not drawn) | – | – | – | – | 4 (≈ 8.56 µM) | – | – |
| COc1ccc2ncc(F)c(CCN3CCC(NCc4ccc(C)cc4)CC3)c2n1 | ≤ 0.25 | 4 (≈ 9.79 µM) | 32 (≈ 78.3 µM) | ≤ 0.25 | 16 (≈ 39.2 µM) | 0.5 (≈ 1.22 µM) | IC50 (DNA gyrase [3]): 0.004 µM; inhibition [4]: < 1%; inhibition [5]: Active; inhibition [10]: Active; MIC (Escherichia coli): 4 µg/mL (≈ 9.79 µM); IC50 (Topoisomerase IV): 0.69 µM |
| COc1ccc2ncc(F)c(CCN3CCC(CCc4ccc5c(c4)OCCO5)CC3)c2n1 | – | – | – | – | 8 (≈ 17.7 µM) | 0.25 (≈ 0.554 µM) | – |
| COc1ccc2ncc(F)c(CCN3CCC([C@@H](O)[C@H](O)c4ccc(C)cc4)CC3)c2n1 | – | – | – | 2 (≈ 4.55 µM) | – | 0.5 (≈ 1.14 µM) | – |
| COc1ccc2ncc(F)c(CCN3CCC(CCc4ccc(C)cc4)CC3)c2n1 | – | – | ≥ 64 | – | 4 (≈ 9.82 µM) | – | – |
| COc1ccc2ncc(F)c(CCN3CCC([C@@H](O)[C@@H](O)c4ccc5c(c4)OCCO5)CC3)c2n1 | – | – | – | 0.03 (≈ 0.062 µM) | – | – | – |
| COc1ccc2ncc(F)c(CCN3CCC(C(=O)Cc4ccc5c(c4)OCCO5)CC3)c2n1 | 4 (≈ 8.59 µM) | 64 (≈ 137 µM) | – | 4 (≈ 8.59 µM) | 32 (≈ 68.7 µM) | ≥ 1 | MIC (Escherichia coli): 64 µg/mL (≈ 137 µM) |
| COc1ccc2ncc(F)c(CCN3CCC(C(O)Cc4ccc(C)cc4)CC3)c2n1 (stereo not drawn) | – | – | – | 0.25 (≈ 0.59 µM) | 8 (≈ 18.9 µM) | 1 (≈ 2.36 µM) | IC50 (DNA gyrase [3]): 0.24 µM; inhibition [4]: < 1%; inhibition [5]: Active; IC50 (Topoisomerase IV): 2.29 µM; IC50 (DNA gyrase [7]): 12.4 µM |
| COc1ccc2ncc(F)c(CCN3CCC(/C=C/c4ccc5c(c4)NC(=O)CO5)CC3)c2n1 | 0.5 (≈ 1.08 µM) | 8 (≈ 17.3 µM) | 16 (≈ 34.6 µM) | ≤ 0.25 | 16 (≈ 34.6 µM) | 0.25 (≈ 0.541 µM) | – |
| COc1ccc2ncc(F)c(CCN3CCC([C@@H](O)[C@H](O)c4ccc5c(c4)OCCO5)CC3)c2n1 | – | – | – | 1 (≈ 2.07 µM) | – | – | – |
| COc1ccc2ncc(F)c(CCN3CCC(/C=C\c4ccc5c(c4)NC(=O)CO5)CC3)c2n1 | ≥ 64 | 32 (≈ 69.2 µM) | – | – | ≥ 64 | 16 (≈ 34.6 µM) | – |
| COc1ccc2ncc(F)c(CCN3CCC([C@@H](O)[C@H](O)c4ccc5c(c4)NC(=O)CO5)CC3)c2n1 | – | – | – | – | ≥ 32 | – | – |
| COc1ccc2ncc(F)c(CCN3CCC(C(N)Cc4ccc5c(c4)OCCO5)CC3)c2n1 (stereo not drawn) | – | – | – | – | ≥ 16 | – | – |
| COc1ccc2ncc(F)c(CCN3CCC(/C=C\c4ccc5c(c4)OCCO5)CC3)c2n1 | 8 (≈ 17.8 µM) | 64 (≈ 142 µM) | ≥ 64 | 8 (≈ 17.8 µM) | ≥ 16 | 4 (≈ 8.9 µM) | MIC (Escherichia coli): ≥ 64 µg/mL |
